Laboratory results published in ChEMBL document CHEMBL1671744 (Antimicrob Agents Chemother, 2010).
Converted amounts (≈) assume the structure as drawn. Where a SMILES comes first, the peptide text is derived from it. [ ]: non-standard residue; d: D form.

How the values were obtained:
[1] = erythrocyte
Escherichia coli = test: Antimicrobial activity against Escherichia coli; type: functional

| SMILES | MHC [1] [µM] | MIC (Escherichia coli) [µM] |
| --- | --- | --- |
| CC[C@@H](C)[C@@H](NC(=O)[C@@H](C)NC(=O)[C@@H](CCCCN)NC(=O)[C@@H](CC(C)C)NC(=O)[C@@H](C)NC(=O)[C@H](NC(=O)[C@@H](Cc1c[nH]cn1)NC(=O)[C@@H](CC(C)C)NC(=O)[C@H](NC(=O)[C@H](NC(=O)[C@@H](CCCCN)NC(=O)[C@@H](CCCCN)NC(=O)[C@@H](C)NC(=O)[C@@H](CO)NC(=O)[C@@H](CCCCN)NC(=O)[C@@H](Cc1ccccc1)NC(=O)[C@H](NC(=O)[C@@H](CCCCN)NC(=O)[C@@H](CC(C)C)NC(=O)[C@@H](Cc1ccccc1)NC(=O)[C@@H](CO)NC(=O)[C@@H](CCCCN)NC(=O)[C@@H](Cc1c[nH]c2ccccc12)NC(=O)[C@@H](CCCCN)NC(C)=O)[C@H](C)O)[C@H](C)O)C(C)C)[C@H](C)O)C(=O)N[C@H](CO)C(=O)N[C@H](CO)C(N)=O | > 88.6 | – |
| CC[C@H](C)[C@H](NC(=O)[C@H](C)NC(=O)[C@H](CCCCN)NC(=O)[C@H](CC(C)C)NC(=O)[C@H](C)NC(=O)[C@@H](NC(=O)[C@H](Cc1c[nH]cn1)NC(=O)[C@H](CC(C)C)NC(=O)[C@@H](NC(=O)[C@@H](NC(=O)[C@H](CCCCN)NC(=O)[C@@H](NC(=O)[C@H](C)NC(=O)[C@H](CO)NC(=O)[C@H](CCCCN)NC(=O)[C@H](Cc1ccccc1)NC(=O)[C@@H](NC(=O)[C@H](CCCCN)NC(=O)[C@H](CC(C)C)NC(=O)[C@H](Cc1ccccc1)NC(=O)[C@H](CO)NC(=O)[C@H](CCCCN)NC(=O)[C@H](Cc1c[nH]c2ccccc12)NC(=O)[C@H](CCCCN)NC(C)=O)[C@@H](C)O)C(C)C)[C@@H](C)O)C(C)C)[C@@H](C)O)C(=O)N[C@@H](CO)C(=O)N[C@@H](CO)C(N)=O (Ac-KWKSFLKTFKSAVKTVLHTALKAISS-NH2) | 5.2 | – |
| CC[C@H](C)[C@H](NC(=O)[C@H](C)NC(=O)[C@H](CCCCN)NC(=O)[C@H](CC(C)C)NC(=O)[C@H](C)NC(=O)[C@@H](NC(=O)[C@H](Cc1cnc[nH]1)NC(=O)[C@H](CC(C)C)NC(=O)[C@@H](NC(=O)[C@@H](NC(=O)[C@H](CCCCN)NC(=O)[C@@H](NC(=O)[C@H](C)NC(=O)[C@H](CO)NC(=O)[C@H](CCCCN)NC(=O)[C@H](Cc1ccccc1)NC(=O)[C@@H](NC(=O)[C@H](CCCCN)NC(=O)[C@H](CC(C)C)NC(=O)[C@H](Cc1ccccc1)NC(=O)[C@H](CO)NC(=O)[C@H](CCCCN)NC(=O)[C@H](Cc1c[nH]c2ccccc12)NC(=O)[C@H](CCCCN)NC(C)=O)[C@@H](C)O)C(C)C)[C@@H](C)O)C(C)C)[C@@H](C)O)C(=O)N[C@@H](CO)C(=O)N[C@@H](CO)C(N)=O (Ac-KWKSFLKTFKSAVKTVLHTALKAISS-NH2) | – | 2.1 (≈ 6.22 µg/mL) |
| CC[C@H](C)[C@H](NC(=O)[C@H](C)NC(=O)[C@H](CCCCN)NC(=O)[C@H](CC(C)C)NC(=O)[C@H](C)NC(=O)[C@@H](NC(=O)[C@H](Cc1cnc[nH]1)NC(=O)[C@H](CC(C)C)NC(=O)[C@@H](NC(=O)[C@@H](NC(=O)[C@H](CCCCN)NC(=O)[C@H](NC(=O)[C@H](C)NC(=O)[C@H](CO)NC(=O)[C@H](CCCCN)NC(=O)[C@H](Cc1ccccc1)NC(=O)[C@@H](NC(=O)[C@H](CCCCN)NC(=O)[C@H](CC(C)C)NC(=O)[C@H](Cc1ccccc1)NC(=O)[C@H](CO)NC(=O)[C@H](CCCCN)NC(=O)[C@H](Cc1c[nH]c2ccccc12)NC(=O)[C@H](CCCCN)NC(C)=O)[C@@H](C)O)C(C)C)[C@@H](C)O)C(C)C)[C@@H](C)O)C(=O)N[C@@H](CO)C(=O)N[C@@H](CO)C(N)=O (Ac-KWKSFLKTFKSA[dV]KTVLHTALKAISS-NH2) | – | 1.1 (≈ 3.26 µg/mL) |
